“Also recorded” adds a separate entry of the source.

One test has as its system male ICR mouse. In words: Conditioned place preference (CPP) test, development of psychological dependence on cocaine. The class given is in vivo. To be noted: measured on ninth day. As to the method:
In the present invention, a conditioned place preference (CPP) test is used to monitor the degree of alleviation in drug dependence and addiction. The CPP system used in the present invention includes a white box, a black box and a pathway connecting the two boxes with each other. Mice are used as test animals and effects on preference/aversion are analyzed by measuring residence times of the mice in the two boxes.
Development of psychological dependence on cocaine was determined according to the CPP (conditioned place preference) test. […]
Step 1 (Basic Test): On the first day of the test, the Guillotine door between the two boxes was opened, and a male ICR mouse having a body weight of 20˜25 g made available by MJ Ltd. (Seoul) was accommodated in the CPP system so that it could move freely therein for 5 minutes. […] Then, residence times of the mouse in the two boxes were measured for 15 minutes to obtain reference values. […]
Step 3 (Test Step): On the ninth day of the test, the Guillotine door between the two boxes was opened, a pathway was provided in the middle of the boxes, and then a mouse, to which no drug was administered, was allowed to remain in the two boxes for 15 minutes. Then, residence times in the white box and in the black box were measured and compared to the values measured on the second day of the test. […]

The test system of test [1] is mice. In words: Locomotor activity, behavioral sensitization caused by cocaine (displacement from spontaneous movements). The test is classed as in vivo, mouse. The protocol:
Behavioral sensitization in recurrence of psychological dependence on cocaine was determined according to the locomoter activity. See [Yoo et al. 2003, Neurosci Lett. 433, pp 37-40].
Test animals were divided into four groups as follows: physiological saline was administered to the first test group, cocaine was administered to the second test group, cocaine +2.5 mg/kg of capsazepine (pretreatment) was administered to the third test group, and cocaine +5.0 mg/kg of capsazepine (pretreatment) was administered to the fourth test group.
A locomotor box was used for the test. […] The bottom of the box was covered with a black sheet having substantially the same size as the former.
Step (1)—Basic Test: On the first day, mice were allowed to move freely in the locomotor box for 30 minutes so that they were accommodated.
After the accommodation period, 15 mg/kg of cocaine was administered to the mice via intraperitoneal injection, and then the mice were allowed to remain in the locomotor box. The displacement from spontaneous movements of the mice was measured. […] On the sixth day of the test, the drug was administered again to the mice and the displacement from spontaneous movements was measured. […] Then, displacement from spontaneous movements was measured. […]

For test [2] the following is noted: cited from earlier work.
For test [3], the system named is mice. In words: CPP test, recurrence of psychological dependence on cocaine after withdrawal. The class given is in vivo, mouse. To be noted: capsazepine 10 mg/kg single-dose pretreatment + cocaine on fifteenth day after 5 days of saline; p<0.05 vs cocaine group. The protocol: The following CPP system was used to perform the test. The CPP system included two boxes, each having a dimension of 15 cm×15 cm×15 cm (width×depth×height). One of the boxes was made of white acryl sheets on three sides thereof, while the other was made of black acryl sheets on three sides thereof. […] Between the two boxes, a gray-colored pathway having a dimension of 3×3×7.5 cm was provided. Also, a Guillotine door capable of interrupting the pathway was provided. […] The test was performed under an illuminance maintained at 20 Lux.
Test animals were divided into four groups. Psychological saline was administered to the first test group (10 mice), and cocaine was administered to the remaining second test group, third test group and fourth test group (30 mice in total). On the ninth day of the test, development of a dependence on cocaine was checked, and then saline was administered alone for the subsequent 5 days to allow the mice to lose the cocaine dependence. […] Residence times in the CPP boxes were measured as described above.

For the compound `COc1cc(CNC(=O)CCCC/C=C/C(C)C)ccc1O` [capsaicin], the “Effect on development of psychological dependence on cocaine (residence times in CPP boxes)” value in the test with male ICR mouse (capsaicin 0.3 mg/kg pretreatment + cocaine, p<0.01 vs saline group) is “increases dependence on cocaine; also recorded: significant increase in psychological dependence on cocaine”.
Regarding `Oc1cc2c(cc1O)CN(C(=S)NCCc1ccc(Cl)cc1)CCC2` [capsazepine], the “Inhibition of development of psychological dependence on cocaine (residence times in CPP boxes)” value in the test with male ICR mouse (capsazepine 2.5 and 5 mg/kg i.p., 30 minutes before cocaine 15 mg/kg i.p., p<0.05 vs cocaine group) is “significantly inhibits development of psychological dependence on cocaine”. Further, in the test with mice [1] (capsazepine 5 mg/kg pretreated group, cocaine 15 mg/kg on twelfth day after withdrawal period of five days, p<0.01), the “Inhibition of behavioral sensitization after drug withdrawal (displacement from spontaneous movements, 60 minutes)” value is reported as “completely inhibited”. Also, the “Inhibition of behavioral sensitization (displacement from spontaneous movements, 60 minutes)” value with mice [1] (capsazepine 5 mg/kg pretreatment + cocaine 15 mg/kg i.p. repeated, sixth day of the test, p<0.001) was “significantly inhibits behavioral sensitization caused by cocaine; also recorded: behavioral sensitization was inhibited”. For the same compound, the “Analgesic actions in an animal test” value in test [2] (Kwak et al., 1998, Santos and Calixto, 1997) is “effective for providing analgesic actions”. Also, the “Analgesic or anti-inflammatory effect” value in test [2] (Perkins and Campbell, 1992) is listed as “does not provide an analgesic or anti-inflammatory effect”. Besides, in the test with mice [3], the “Inhibition of recurrence of psychological dependence on cocaine (residence times in CPP boxes)” value is listed as “significantly inhibits recurrence of dependence on cocaine; also recorded: showed inhibition of such recurrence”.
